According to patent publication US4962113A, “Pyridinium derivatives, their production and use” (Takeda Chemical Industries, Ltd, priority 1987, dated 1990):
Like-named read-outs stand apart in the source and are kept apart here.

Legend:
[1] = test system: platelet aggregation (PAF); experiment: Inhibitory action on PAF-induced rabbit platelet aggregation; type: cell-based; settings: Oryctolagus cuniculus, read-out: inhibitory percentage (platelet aggregation); for inhibition at 3 µM: 3 × 10^-6 M; for inhibition at 0.3 µM: 3 × 10^-7 M; for inhibition at 0.03 µM: 3 × 10^-8 M
Description: Blood was collected directly from the hearts of male rabbits using a syringe containing, as an anticoagulant, 3.15% citric acid (one part to 9 parts of blood). The blood was subjected to centrifuge at 800 rpm for ten minutes at room temperature to obtain platelet rich plasma (PRP). The remaining blood was further subjected to centrifuge at 3000 rpm for ten minnutes to separate platelet poor plasma (PPP) as the supernatant. PRP was diluted with PPP, and the number of platelets was adjusted to about 500,000/ μl. This PRP(250 μl) was stirred for two minutes at 37° C., and there was added a test sample, and the mixture was stirred for further two minutes, followed by addition of PAF of a given concentration. Platelet aggregation was examined by means of a platelet-agglutometer (manufactured by Rika Denki). Platelet aggregation preventing action of the test sample was determined based on the maximum percent light transmission (maximum percent. agglutination).

PAF-induced hypotension = experiment: Inhibitory action on PAF-induced hypotension in rats; type: in vivo, rat (Sprague-Dawley); settings: Rattus norvegicus, read-out: Inhibitory Rate (Lowering of Blood Pressure); for inhibition in vivo at 0.01 mg/kg / inhibition in vivo at 0.03 mg/kg / inhibition in vivo at 0.1 mg/kg: iv; for inhibition in vivo at 1 mg/kg / inhibition in vivo at 3 mg/kg / inhibition in vivo at 10 mg/kg / inhibition in vivo at 30 mg/kg: oral
Description: Sprague-Dawley male rats, each weighing about 250 g, were subjected to the experiment. The rats were cannulated on the side of femoral artery for measuring the blood pressure, and on the side of femoral vein for administering the drug. The blood pressure was measured through a pressure transducer and recorded. First, PAF (1 μg/kg) was administered intravenously (i.v.) to examine the extent of lowering of blood pressure. Then, the test samples were administered intravenously or orally. […]
The inhibitory action on PAF-induced hypotension (% inhibition) is indicated as the ratio of blood pressure-lowering degree (Δ mmHg) induced by PAF after administration of test samples relative to blood pressure-lowering degree (Δ mmHg) induced by PAF before administration of test samples.

With `CCC[n+]1cc(Br)cc(C(=O)N(CCOC(=O)NCCOC(=O)Nc2cccc3ccccc23)c2cccc(Cl)c2)c1` [Production Example 44, 5-bromo-3-[N-(3-chlorophenyl)-N-[2-[2-(1-naphthylcarbamoyloxy)ethyl]carbamoyloxy]ethyl]carbamoyl-1-propylpyridinium chloride] the inhibition at 3 µM [1] was 100%, the inhibition at 0.3 µM [1] was 100% and the inhibition at 0.03 µM [1] was 27%. It also gave an inhibition in vivo at 0.01 mg/kg (PAF-induced hypotension; 1 hr.) of 58%, an inhibition in vivo at 0.01 mg/kg (PAF-induced hypotension; 2 hr.) of 54% and an inhibition in vivo at 0.01 mg/kg (PAF-induced hypotension; 4 hr.) of 47%. For the same molecule, the inhibition in vivo at 0.01 mg/kg (PAF-induced hypotension; 6 hr.) was 41%, the inhibition in vivo at 0.03 mg/kg (PAF-induced hypotension; 1 hr.) was 81% and the inhibition in vivo at 0.03 mg/kg (PAF-induced hypotension; 2 hr.) was 71%. For the same molecule, the inhibition in vivo at 0.03 mg/kg (PAF-induced hypotension; 4 hr.) was 64%, the inhibition in vivo at 0.03 mg/kg (PAF-induced hypotension; 6 hr.) was 59% and the inhibition in vivo at 0.03 mg/kg (PAF-induced hypotension; 8 hr.) was 39%. The inhibition in vivo at 0.01 mg/kg (PAF-induced hypotension; 5 min, i.v., 5 min.) was 68%, the inhibition in vivo at 0.03 mg/kg (PAF-induced hypotension; 5 min, i.v., 5 min.) was 97% and the inhibition in vivo at 1 mg/kg (PAF-induced hypotension; 1 hr.) was 62%. It also gave an inhibition in vivo at 1 mg/kg (PAF-induced hypotension; 2 hr.) of 74%, an inhibition in vivo at 1 mg/kg (PAF-induced hypotension; 4 hr.) of 73% and an inhibition in vivo at 1 mg/kg (PAF-induced hypotension; 6 hr.) of 68%. For the same molecule, the inhibition in vivo at 1 mg/kg (PAF-induced hypotension; 8 hr.) was 61%, the inhibition in vivo at 3 mg/kg (PAF-induced hypotension; 1 hr.) was 77% and the inhibition in vivo at 3 mg/kg (PAF-induced hypotension; 2 hr.) was 84%. It also gave an inhibition in vivo at 3 mg/kg (PAF-induced hypotension; 4 hr.) of 97%, an inhibition in vivo at 3 mg/kg (PAF-induced hypotension; 6 hr.) of 94% and an inhibition in vivo at 3 mg/kg (PAF-induced hypotension; 8 hr.) of 92%.
`CCC[n+]1cc(Br)cc(C(=O)N(CCOC(=O)NCCOC(=O)Nc2cccc3ccccc23)c2cccc(OC)c2)c1` [Production Example 94, 5-Bromo-3-[N-(3-methoxyphenyl)-N-[2-[2-(1-naphthylcarbamoyloxy)ethyl]carbamoyloxy]ethyl]carbamoyl-1-propylpyridinium chloride] was tested, and the inhibition at 3 µM [1] was 100%, the inhibition at 0.3 µM [1] was 99% and the inhibition at 0.03 µM [1] was 10%. The inhibition in vivo at 0.03 mg/kg (PAF-induced hypotension; 1 hr.) was 94%, the inhibition in vivo at 0.03 mg/kg (PAF-induced hypotension; 2 hr.) was 86% and the inhibition in vivo at 0.03 mg/kg (PAF-induced hypotension; 4 hr.) was 70%. The inhibition in vivo at 0.03 mg/kg (PAF-induced hypotension; 6 hr.) was 63%, the inhibition in vivo at 0.03 mg/kg (PAF-induced hypotension; 8 hr.) was 52% and the inhibition in vivo at 0.03 mg/kg (PAF-induced hypotension; 5 min, i.v., 5 min.) was 100%. For the same molecule, the inhibition in vivo at 1 mg/kg (PAF-induced hypotension; 1 hr.) was 27%, the inhibition in vivo at 1 mg/kg (PAF-induced hypotension; 2 hr.) was 34% and the inhibition in vivo at 1 mg/kg (PAF-induced hypotension; 4 hr.) was 50%. It also gave an inhibition in vivo at 1 mg/kg (PAF-induced hypotension; 6 hr.) of 50%, an inhibition in vivo at 1 mg/kg (PAF-induced hypotension; 8 hr.) of 40% and an inhibition in vivo at 3 mg/kg (PAF-induced hypotension; 1 hr.) of 67%. For the same molecule, the inhibition in vivo at 3 mg/kg (PAF-induced hypotension; 2 hr.) was 89%, the inhibition in vivo at 3 mg/kg (PAF-induced hypotension; 4 hr.) was 93% and the inhibition in vivo at 3 mg/kg (PAF-induced hypotension; 6 hr.) was 97%. The inhibition in vivo at 3 mg/kg (PAF-induced hypotension; 8 hr.) was 90%.
In the case of `CCC[n+]1cc(Cl)cc(C(=O)N(CCC(=O)NCCOC(=O)N2CCc3ccccc3C2)c2ccccc2)c1` [Production Example 88, 5-Chloro-3-[N-[2-[[2-(1,2,3,4-tetrahydroisoquinolyl)carbonyloxy]ethyl]carbamoyl]ethyl-N-phenyl]carbamoyl-1-propylpyridinium chloride], the inhibition at 3 µM [1] is reported as 100%, the inhibition at 0.3 µM [1] is reported as 100% and the inhibition at 0.03 µM [1] is reported as 33%. It also gave an inhibition in vivo at 0.01 mg/kg (PAF-induced hypotension; 1 hr.) of 59%, an inhibition in vivo at 0.01 mg/kg (PAF-induced hypotension; 2 hr.) of 55% and an inhibition in vivo at 0.01 mg/kg (PAF-induced hypotension; 4 hr.) of 40%. The inhibition in vivo at 0.01 mg/kg (PAF-induced hypotension; 6 hr.) was 25%, the inhibition in vivo at 0.01 mg/kg (PAF-induced hypotension; 8 hr.) was 19% and the inhibition in vivo at 0.01 mg/kg (PAF-induced hypotension; 5 min, i.v., 5 min.) was 95%. It also gave an inhibition in vivo at 1 mg/kg (PAF-induced hypotension; 1 hr.) of 70%, an inhibition in vivo at 1 mg/kg (PAF-induced hypotension; 2 hr.) of 75% and an inhibition in vivo at 1 mg/kg (PAF-induced hypotension; 4 hr.) of 73%. The inhibition in vivo at 1 mg/kg (PAF-induced hypotension; 6 hr.) was 61%, the inhibition in vivo at 1 mg/kg (PAF-induced hypotension; 8 hr.) was 58% and the inhibition in vivo at 3 mg/kg (PAF-induced hypotension; 1 hr.) was 93%. For the same molecule, the inhibition in vivo at 3 mg/kg (PAF-induced hypotension; 2 hr.) was 95%, the inhibition in vivo at 3 mg/kg (PAF-induced hypotension; 4 hr.) was 98% and the inhibition in vivo at 3 mg/kg (PAF-induced hypotension; 6 hr.) was 83%. For the same molecule, the inhibition in vivo at 3 mg/kg (PAF-induced hypotension; 8 hr.) was 85%.
In the case of `CCC[n+]1cc(Br)cc(C(=O)N(CCOC(=O)NCCOc2cccc3ccccc23)c2ccccc2)c1` [Production Example 7, 5-bromo-3-[N-[2-[2-(1-naphthyloxy)ethyl]carbamoyloxy]ethyl-N-phenyl]carbamoyl-1-propylpyridinium iodide], the inhibition at 3 µM [1] is reported as 100%, the inhibition at 0.3 µM [1] is reported as 100% and the inhibition at 0.03 µM [1] is reported as 18%. It also gave an inhibition in vivo at 0.01 mg/kg (PAF-induced hypotension; 1 hr.) of 59%, an inhibition in vivo at 0.01 mg/kg (PAF-induced hypotension; 2 hr.) of 48% and an inhibition in vivo at 0.01 mg/kg (PAF-induced hypotension; 4 hr.) of 45%. The inhibition in vivo at 0.01 mg/kg (PAF-induced hypotension; 6 hr.) was 40%, the inhibition in vivo at 0.01 mg/kg (PAF-induced hypotension; 8 hr.) was 35% and the inhibition in vivo at 0.03 mg/kg (PAF-induced hypotension; 1 hr.) was 84%. It also gave an inhibition in vivo at 0.03 mg/kg (PAF-induced hypotension; 2 hr.) of 81%, an inhibition in vivo at 0.03 mg/kg (PAF-induced hypotension; 4 hr.) of 68% and an inhibition in vivo at 0.03 mg/kg (PAF-induced hypotension; 6 hr.) of 57%. The inhibition in vivo at 0.03 mg/kg (PAF-induced hypotension; 8 hr.) was 51%, the inhibition in vivo at 0.1 mg/kg (PAF-induced hypotension; 1 hr.) was 100% and the inhibition in vivo at 0.1 mg/kg (PAF-induced hypotension; 2 hr.) was 91%. It also gave an inhibition in vivo at 0.1 mg/kg (PAF-induced hypotension; 4 hr.) of 76%, an inhibition in vivo at 0.1 mg/kg (PAF-induced hypotension; 6 hr.) of 63% and an inhibition in vivo at 0.1 mg/kg (PAF-induced hypotension; 8 hr.) of 58%. The inhibition in vivo at 0.01 mg/kg (PAF-induced hypotension; 5 min, i.v., 5 min.) was 76%, the inhibition in vivo at 0.03 mg/kg (PAF-induced hypotension; 5 min, i.v., 5 min.) was 100% and the inhibition in vivo at 0.1 mg/kg (PAF-induced hypotension; 5 min, i.v., 5 min.) was 100%. It also gave an inhibition in vivo at 3 mg/kg (PAF-induced hypotension; 1 hr.) of 36%, an inhibition in vivo at 3 mg/kg (PAF-induced hypotension; 2 hr.) of 59% and an inhibition in vivo at 3 mg/kg (PAF-induced hypotension; 4 hr.) of 63%. For the same molecule, the inhibition in vivo at 3 mg/kg (PAF-induced hypotension; 6 hr.) was 59%, the inhibition in vivo at 3 mg/kg (PAF-induced hypotension; 8 hr.) was 41% and the inhibition in vivo at 10 mg/kg (PAF-induced hypotension; 1 hr.) was 100%. The inhibition in vivo at 10 mg/kg (PAF-induced hypotension; 2 hr.) was 97%, the inhibition in vivo at 10 mg/kg (PAF-induced hypotension; 4 hr.) was 92% and the inhibition in vivo at 10 mg/kg (PAF-induced hypotension; 6 hr.) was 84%. For the same molecule, the inhibition in vivo at 10 mg/kg (PAF-induced hypotension; 8 hr.) was 78%, the inhibition in vivo at 30 mg/kg (PAF-induced hypotension; 1 hr.) was 100% and the inhibition in vivo at 30 mg/kg (PAF-induced hypotension; 2 hr.) was 100%. It also gave an inhibition in vivo at 30 mg/kg (PAF-induced hypotension; 4 hr.) of 97%, an inhibition in vivo at 30 mg/kg (PAF-induced hypotension; 6 hr.) of 89% and an inhibition in vivo at 30 mg/kg (PAF-induced hypotension; 8 hr.) of 86%.
Molecule `CCC[n+]1cc(Br)cc(C(=O)N(CCOC(=O)NCCOC(=O)N2CCc3ccccc3C2)c2ccccc2)c1` [Production Example 77, 5-Bromo-3-[N-[2-[[2-(1,2,3,4-tetrahydroisoquinolyl)carbonyloxy]ethyl]carbamoyloxy]ethyl-N-phenyl]carbamoyl-1-propylpyridinium chloride] has an inhibition at 3 µM [1] of 100%, an inhibition at 0.3 µM [1] of 100% and an inhibition at 0.03 µM [1] of 51%. For the same molecule, the inhibition in vivo at 0.03 mg/kg (PAF-induced hypotension; 1 hr.) was 100%, the inhibition in vivo at 0.03 mg/kg (PAF-induced hypotension; 2 hr.) was 97% and the inhibition in vivo at 0.03 mg/kg (PAF-induced hypotension; 4 hr.) was 62%. It also gave an inhibition in vivo at 0.03 mg/kg (PAF-induced hypotension; 6 hr.) of 46%, an inhibition in vivo at 0.03 mg/kg (PAF-induced hypotension; 8 hr.) of 33% and an inhibition in vivo at 0.03 mg/kg (PAF-induced hypotension; 5 min, i.v., 5 min.) of 100%. The inhibition in vivo at 1 mg/kg (PAF-induced hypotension; 1 hr.) was 56%, the inhibition in vivo at 1 mg/kg (PAF-induced hypotension; 2 hr.) was 64% and the inhibition in vivo at 1 mg/kg (PAF-induced hypotension; 4 hr.) was 72%. The inhibition in vivo at 1 mg/kg (PAF-induced hypotension; 6 hr.) was 66%, the inhibition in vivo at 1 mg/kg (PAF-induced hypotension; 8 hr.) was 59% and the inhibition in vivo at 3 mg/kg (PAF-induced hypotension; 1 hr.) was 89%. For the same molecule, the inhibition in vivo at 3 mg/kg (PAF-induced hypotension; 2 hr.) was 100%, the inhibition in vivo at 3 mg/kg (PAF-induced hypotension; 4 hr.) was 99% and the inhibition in vivo at 3 mg/kg (PAF-induced hypotension; 6 hr.) was 99%. It also gave an inhibition in vivo at 3 mg/kg (PAF-induced hypotension; 8 hr.) of 97%.
